Here are results for four molecules from patent US20250082766A1, “TREATMENT OF BRAIN TUMORS BY TARGETING THE CHOLESTEROL PATHWAY IN ASTROCYES” (Ramot at Tel-Aviv University Ltd., priority 2022, published 2025).

Experiment [1] relates to glioma. The conditions noted are these: OXPHOS-targeting drugs; cited from earlier work.
In experiment [2] the test system is reactive astrocytes / GL261 glioma. Briefly: Reactive astrocyte depletion with GCV in GL261-bearing WT or Gfap-TK mice. The class given is in vivo, mouse. The text has this:
FIGS. 1A-I illustrate that depletion of Tumor-associated astrocytes (TAAs) regress glioblastoma progression. (FIG. 1A) Representative immunofluorescence images of reactive TAAs stained for GFAP (cyan) crowning a glioblastoma (GBM) tumor (GFP^+-GL261, white), and nuclei (DAPI, yellow). The right image is an expansion of the area marked by the white box. (n=3 biologically independent experiments, 3 mice per group). Scale bar, 1000 m; (FIGS. 1B-I) WT (wild type), or Gfap-TK GBM-bearing mice were treated daily with Ganciclovir (GCV, 25 mg/kg) from day 10 until the experimental endpoint as illustrated in FIG. 1B. (FIG. 1C) representative immunofluorescence images of reactive astrocyte depletion at the tumor margins (GFP^+-GL261, white), as detected by GFAP staining (cyan). Scale bars, 500 m. Data are representative of three independent experiments with n=4 mice/group. (FIGS. 1D-G) Tumor size in GCV-treated WT or Gfap-TK GBM-bearing littermates. (FIGS. 1D-E) Representative images of GL261-derived bioluminescence from each group are shown in FIG. 1D and quantification of tumor size in FIG. 1E. Data are representative of five independent experiments with n=6 mice/group. (FIGS. 1F-G) Representative images from each group, 17 days after GL261 cell implantation, are shown in FIG. 1F with quantification of tumor size in FIG. 1G, tumor (GL261 cells in purple), and nuclei (DAPI; white). Scale bar, 1000 m. Data are representative of three independent experiments with n=5 mice/group. (FIG. 1H) Bodyweight assessment of mice from FIGS. 1D-E. (FIG. 1I) Kaplan-Meier curves assessing overall survival. Data are representative of three independent experiments with n=8 mice/group. Data in FIGS. 1D-H are shown as mean±s.e.m. P values were determined by two-way ANOVA (FIGS. 1D-H) or Log rank (Mantel-Cox) test (FIG. 1I). *P<0.05, **P<0.01, ***P<0.001, n.s. not significant.
For intracranial mouse glioma, mice were anesthetized, positioned in a Stereotaxic Alignment System, and injected with 1.5×10^4 GL261 or CT-2A cells in 2 μl of DMEM. Injections were made to the right frontal lobe, approximately 2.5 mm lateral and 0.1 mm caudal from bregma at a depth of 3 mm. In-vivo bioluminescence imaging, following XenoLight D-luciferin Potassium Salt administration (150 mg/kg) i.p. administration, was determined using IVIS Spectrum system (PerkinElmer). Ganciclovir (GCV, Cymevene, Roche #SAP-10051872; 25 mg/kg), Diphtheria-toxin (DT, Sigma-Aldrich, #D0564; 1100 ng/mice), or vehicle control (PBS) were administered daily following tumor establishment (day 10), as previously described (Mayo, L., et al. Nat Med (2014) 20: 1147-1156). CD8^+ T cell depletion was performed using an anti-CD8 monoclonal antibody ([…], Bioxcell) or an isotype control monoclonal antibody (2A3, Bioxcell), as previously described (Takenaka, M. C. et al. Control of tumor-associated macrophages and T cells in glioblastoma via AHR and CD39. Nat Neurosci 22, 729-740 (2019)). GBM-bearing mice were intraperitoneally injected (0.1 mg/mouse) with an anti-CD8 or an isotype control mAbs, 1 day before, and 7 days after, GCV administration. CD8 T-cell depletion was validated by FACS analysis using a Sony SH800 FACS instrument (Sony Biotechnology). Data analysis was performed using FlowJo v10 (TreeStar, USA). The following reagents were used for analysis: anti-CD45 (1:100; 30-F11, Biolegend, #103106), anti-CD3[…] (1:50; 145-2C11, Biolegend #100335), and anti-CD8a (1:100; 53-6.7, Biolegend, #100765).
To study the role of TAAs in glioblastoma, the course of tumor progression was analyzed in mice expressing the herpes simplex virus thymidine kinase (HSVtk) under the Gfap promotor (Gfap-TK), in which Ganciclovir (GCV) administration can deplete reactive astrocytes. For this purpose, GFP^+GL261-Luc (GL261) was intracranially injected […], into syngeneic C57Bl/6 WT or into Gfap-TK littermates. […]

In experiment [3] the test system is GL261 and CT-2A glioma cells. Briefly: Cell viability assay (Annexin V/DAPI FACS) of glioma cells. The class given is cell-based, mouse. Particulars: GL261 or CT-2A in LPDS-media; cholesterol 250 ng/ml for 5 days; FIGS. 5F-G. As to the method:
FIGS. 5A-N illustrate that astrocyte-derived cholesterol supports glioma survival. (FIGS. 5A-D) Real-time changes in the ECAR (FIGS. 5A-B) and oxygen consumption rate (OCR) (FIGS. 5C-D) of GL261 glioma cells, cultured in media supplemented with full serum (FCS, fetal calf serum) or lipoprotein-deprived serum (LPDS, Lipoprotein-deficient serum) for 18 hours and measured using Seahorse. Oligo, oligomycin; FCCP, carbonyl cyanide4-(trifluoromethoxy) phenylhydrazone; R/A, rotenone plus antimycin A; 2-DG, 2-deoxy-d-glucose. Glycolysis, glycolytic capacity and glycolytic reserve were extracted from the ECAR reading, and basal respiration, adenosine triphosphate (ATP) production, Maximal respiration, and spare respiratory capacity were determined based on OCR. Data are representative of two independent experiments (n=6 technical replicates per experiment). (FIG. 5E) Percentage of cell death of GL261 and CT-2A glioma cells, or primary astrocytes, cultured in FCS or LPDS for 5 days; as determined by Annexin-V assay (n=5 independent experiments). […] Representative flow cytometry plots of Annexin-V/DAPI staining from each group are shown in FIG. 5F and quantification analyses of cholesterol rescue are in FIG. 5G (n=5 biologically independent experiments). (FIGS. 5H-K) Representative images and quantification of LDLR expression (Immunoblot, FIGS. 5H-I) and cell death via FACS analysis of Annexin V/DAPI staining (FIGS. 5J-K) in response to endogenous LXR agonists (24-OHC) or Mock (DMSO) treatment in GL261 and CT-2A cells (n=3 biologically independent experiments). […] (FIGS. 5L-M) Representative flow cytometry plots of murine GL261 and CT-2A glioma cells co-cultured for 5 days with primary mouse astrocytes are shown in FIG. 5L and quantification analyses in FIG. 5M (n=4 biologically independent experiments). (FIG. 5N) quantification analyses of human U87EGFRvIII (U87) glioma cells co-cultured with human primary astrocytes for 5 days (n=3 biologically independent experiments). […]

`CN(C)C(=N)N=C(N)N` [metformin]: in experiment [1], the “glioma proliferation and cell death” value was “inhibit glioma proliferation and induce cell death”.
On to `Nc1nc(O)c2ncn(COC(CO)CO)c2n1` [GCV, Ganciclovir], for which the “reactive astrocytes around the tumors (GFAP staining)” value in experiment [2] (GBM-bearing Gfap-TK mice (not in WT mice), GCV 25 mg/kg daily from day 10, FIG. 1C) is reported as “specific ablation of reactive astrocytes”. Further, the weight loss entry in experiment [2] (GCV-treated GL261-bearing Gfap-TK mice vs WT littermates, FIG. 1H) is reported as “significantly attenuates the weight loss”. Also, the survival entry is “dramatically improves their survival” in experiment [2] (GCV-treated GL261-bearing Gfap-TK mice vs WT littermates, FIG. 1I) and “had no effect on survival” in experiment [2] (GL261-bearing WT mice, GCV vs vehicle, FIG. 7E). Besides, the “accumulation of IBA-1+ TAMs in the TME” value in experiment [2] (GCV-treated GL261-bearing Gfap-TK vs WT mice, day 17, FIGS. 3D-E) is “significantly reduces”. For the same molecule, in experiment [2] (GL261-bearing Gfap-TK mice, GCV 25 mg/kg daily from day 10, FIGS. 1D-G), the “tumor size (bioluminescence, histology)” value is on record as “dramatic tumor regression”. Besides, the “GBM progression (tumor size, bioluminescence)” value in experiment [2] (GL261-bearing WT mice, GCV 25 mg/kg daily vs vehicle, FIG. 7A) is listed as “neither GCV treatment of WT mice nor genetic insertion of the HSVtk into Gfap-TK mice (without GCV treatment) affected GBM progression”.
As to `Cc1nc(-c2nc(-c3ccc(OC(F)(F)F)cc3)no2)nn1Cc1cccc(N2CCC(S(C)(=O)=O)CC2)c1` [IACS-010759], the “glioma proliferation and cell death” value in experiment [1] was “inhibit glioma proliferation and induce cell death”.
On to `CC(C)CCC[C@@H](C)[C@H]1CC[C@H]2[C@@H]3CC=C4C[C@@H](O)CC[C@]4(C)[C@H]3CC[C@]12C` [cholesterol], for which the “rescue of glioma viability from lipoprotein-bound cholesterol deprivation” value in experiment [3] is given as “overcame the deleterious effects of lipoprotein-bound cholesterol deprivation on glioma viability”.
